Measurements: article PMC7504817, “Phenylalanine Stereoisomers of CJ-15,208 and [D-Trp]CJ-15,208 Exhibit Distinctly Different Opioid Activity Profiles” (Molecules, 2020)
Entries after “also recorded” stand apart in the source; their conditions may differ. Like-named read-outs stand apart in the source and are kept apart here.

Legend:
rat MOR = molecular target: T1, rat MOR (Rattus norvegicus, UniProt P33535); experiment: Radioligand equilibrium competition binding, MOR; conditions: [3H]DAMGO; membranes from CHO cells expressing rat MOR; mean ± SEM, at least three experiments
T1 construct: expressed in transfected cells

[1] = Metabolic stability in mouse liver microsomes; format: in vitro ADME; conditions: pH 7.4, 5 µM peptide, 0.25 mg/mL protein, with NADPH, 37 °C, read-out: t1/2 in mouse liver microsomes
Description: The macrocyclic tetrapeptide (5 µM) in 1% acetonitrile was incubated with mouse liver microsomes (0.25 mg/mL protein, Xenotech, Lenexa, KS, USA) at 37 °C in the presence or absence of co-factor NADPH RapidStart System (1 mM, Xenotech) or NADPH solution (Sigma, St. Louis, MO, USA) in potassium phosphate buffer (50 mM, pH 7.4). Aliquots (100 µL) taken at 0, 5, 15, 30, 60 and 120 min were quenched with ice-cold acetonitrile (1 vol) containing internal standard ([D-NMeAla^2]CJ-15,208 [26], 5 µM) to precipitate the proteins. The lack of endogenous interference with the analysis of the stereoisomer or internal standard was confirmed by analyzing samples lacking the macrocyclic tetrapeptide.
Following centrifugation at 10,000× g rpm for 10 min, the supernatant (50 µL) was diluted with water (75 µL), stored overnight at −20 °C and analyzed by LC-MS/MS using methodology similar to that described for [D-Trp]CJ-15,208 [32]. Liquid chromatography was performed on a Hypersil BDS C8 column (50 mm × 2.1 mm, 3 µm) with a flow rate of 0.2 mL/min and an injection volume of 20 µL using an Acquity UPLC system (Waters, Milford, MA, USA). The peptides were separated using a gradient of aqueous acetonitrile containing 0.08% formic acid of 20% B (0–2 min), 20–50% B (2–3 min), 50–80% B (3–6 min), 80% B (6–7 min), 80–20% B (7–8 min) and 20% B (8–10 min).
ESI-MS/MS was performed on a Waters Quatro triple quadrupole instrument operating in the positive ion multiple reaction monitoring mode. Data acquisition was carried out with Mass Lynx 4.1 software with the following settings: capillary voltage, 2500 V; cone voltage, 30 V; source temperature, 100 °C; desolvation temperature, 250 °C; cone gas flow, 279 L/h; desolvation gas flow, 1157 L/h; LM 1 resolution, 14; HM 1 resolution, 14; ion energy 1, 1.0; MS/MS mode entrance, -1; MS/MS collision energy, 35 eV; MS/MS mode exit, 2; LM 2 resolution, 13.0; HM 2 resolution, 13.0; ion energy 2, 1.5; multiplier, 650; collision cell pressure, 1.63 × 10^−3 mbar; collision gas, argon. The transition m/z 578.2 ([M + H]^+) → 217.2 was monitored to determine the peak area counts of the stereoisomers, and m/z 566.2 ([M + H]^+) → 232.9 was monitored to determine the peak area counts of the internal standard (collision energy 22 eV) with the following settings: dwell time, 0.3 s; delay, 0.05 s.

C57BL/6J mice [2] = experiment: 55 °C warm-water tail-withdrawal assay (antinociception); format: in vivo, mouse
Description: For intracerebroventricular (i.c.v.) administration the macrocyclic tetrapeptides were dissolved in dimethyl sulfoxide (DMSO), followed by addition of sterile saline (0.9%) so that the final vehicle was 50% DMSO and 50% saline, and the i.c.v. injections performed as described previously. This concentration of DMSO was not observed to have antinociceptive or behavioral effects in previous use. For per os (p.o.) administration the macrocyclic tetrapeptides were administered in 10% Solutol in 0.9% saline. All solutions for animal administration were prepared fresh daily.
The 55 °C warm-water tail-withdrawal assay was performed in mice as previously described, with the latency of the mouse to withdraw its tail from the water taken as the endpoint (a cut-off time of 15 sec was used in this assay). Antinociception was calculated according to the following formula: % antinociception = 100 × (test latency − control latency)/(15 − control latency). Tail-withdrawal data points are the means of 8–16 mice, unless otherwise indicated, with SEM shown by error bars.
All dose-response lines were analyzed by regression, and ED50 (effective dose producing 50% antinociception) values and 95% confidence intervals (C.I.) determined using individual data points from graded dose-response curves with Prism 8.0 software (GraphPad, La Jolla, CA, USA). Percent antinociception was used to determine within group effects and to allow comparison to baseline latency in tail-withdrawal experiments. The statistical significance of differences between ED50 values was determined by evaluation of the ED50 value shift via nonlinear regression modeling with Prism software. Significant differences in behavioral data were analyzed by ANOVA (one-way or two-way with repeated measures (RM), as appropriate). Significant results were further analyzed with Sidak’s, Tukey’s, or Dunnett’s multiple comparison post hoc tests, as appropriate. Data for conditioned place preference experiments were analyzed by two-way RM ANOVA, with analyses examining the main effect of conditioned place preference phase (e.g., pre- or post-conditioning) and the interaction of drug pretreatment. Significant effects were further analyzed using Sidak’s HSD post hoc testing. All data are presented as mean ± SEM, with significance set at p < 0.05.

C57BL/6J mice [3] = experiment: Opioid receptor involvement in antinociception (antagonist pretreatment, tail-withdrawal assay); format: in vivo, mouse; conditions: i.c.v. (1, 3, 4, 5 at 10 nmol, 2 at 100 nmol); pretreatment with β-FNA, nor-BNI or naltrindole
DOR = molecular target: T2, DOR (Mus musculus, UniProt P32300); experiment: Antagonist activity against DOR-selective agonist SNC-80 (tail-withdrawal assay); format: in vivo; conditions: stereoisomer 100 nmol i.c.v. pretreatment; SNC-80 100 nmol i.c.v.
T2 construct: from tissue; host or cells: whole animal, C57BL/6J mice

rat KOR [4] = molecular target: T3, rat KOR (Rattus norvegicus, UniProt P34975); conditions: ratio Ki(MOR)/Ki(KOR)
C57BL/6J mice [5] = conditions: mouse, in vivo
C57BL/6J mice [6] = conditions: mouse, in vivo; remark: listed apart in the source
C57BL/6J mice [7] = conditions: mouse, in vivo; remark: listed apart in the source
rat KOR [8] = molecular target: T3, rat KOR; experiment: biochemical
C57BL/6J mice [9] = experiment: Acute antinociceptive tolerance (tail-withdrawal assay, dosing at 0 and 8 h); conditions: i.c.v.; for Fold-Shift, Naïve ED50 vs. Second ED50: 0 h vs 8 h; for ED50 (95% C.I.) Pretreated Mice: 8 h after pretreatment with ED50 dose of the same compound, * significantly different from naïve; for acute antinociceptive tolerance: ED50 at 8 h vs 0 h; for Naïve ED50 (95% C.I.): naïve C57BL/6J mice, tail-withdrawal assay
mouse DOR = conditions: radioligand binding; ref [19]; cited from earlier work
[10] = set-up: method as in Khaliq et al., manuscript in preparation; conditions: ref Khaliq et al., manuscript in preparation; cited from earlier work
C57BL/6J mice [11] = conditions: mice, ref [19], [20], cited from earlier work
C57BL/6J mice [12] = conditions: ref [19], [20]; cited from earlier work
C57BL/6J mice [13] = experiment: Conditioned place preference / aversion assay; conditions: 10 mg/kg, i.p., two-day place conditioning
C57BL/6J mice [14] = experiment: Respiration and ambulation, CLAMS/Oxymax system; conditions: 10 mg/kg, i.p.; 60 min

T3 sequence (P34975 whole entry): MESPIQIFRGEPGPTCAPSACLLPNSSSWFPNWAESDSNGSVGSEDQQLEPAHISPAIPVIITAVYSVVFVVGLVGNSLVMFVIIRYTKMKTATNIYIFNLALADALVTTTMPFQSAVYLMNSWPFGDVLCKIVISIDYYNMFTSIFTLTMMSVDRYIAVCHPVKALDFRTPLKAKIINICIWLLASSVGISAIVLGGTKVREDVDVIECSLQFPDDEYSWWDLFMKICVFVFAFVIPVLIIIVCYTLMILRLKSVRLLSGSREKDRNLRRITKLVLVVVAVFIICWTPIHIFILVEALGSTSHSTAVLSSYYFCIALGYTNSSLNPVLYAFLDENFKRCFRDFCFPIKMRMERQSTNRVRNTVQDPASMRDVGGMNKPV
T1 sequence (P33535 whole entry): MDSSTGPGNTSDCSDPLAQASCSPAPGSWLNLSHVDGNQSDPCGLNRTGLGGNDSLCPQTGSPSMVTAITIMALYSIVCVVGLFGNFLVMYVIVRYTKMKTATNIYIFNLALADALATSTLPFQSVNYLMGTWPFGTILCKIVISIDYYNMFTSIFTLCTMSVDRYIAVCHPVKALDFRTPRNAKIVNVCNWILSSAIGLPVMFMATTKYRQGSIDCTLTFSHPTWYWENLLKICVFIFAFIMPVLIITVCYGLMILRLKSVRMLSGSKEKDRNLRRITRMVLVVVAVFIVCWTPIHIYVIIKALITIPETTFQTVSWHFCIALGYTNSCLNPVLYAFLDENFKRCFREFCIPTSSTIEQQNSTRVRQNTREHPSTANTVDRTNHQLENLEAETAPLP
T2 sequence (P32300 whole entry): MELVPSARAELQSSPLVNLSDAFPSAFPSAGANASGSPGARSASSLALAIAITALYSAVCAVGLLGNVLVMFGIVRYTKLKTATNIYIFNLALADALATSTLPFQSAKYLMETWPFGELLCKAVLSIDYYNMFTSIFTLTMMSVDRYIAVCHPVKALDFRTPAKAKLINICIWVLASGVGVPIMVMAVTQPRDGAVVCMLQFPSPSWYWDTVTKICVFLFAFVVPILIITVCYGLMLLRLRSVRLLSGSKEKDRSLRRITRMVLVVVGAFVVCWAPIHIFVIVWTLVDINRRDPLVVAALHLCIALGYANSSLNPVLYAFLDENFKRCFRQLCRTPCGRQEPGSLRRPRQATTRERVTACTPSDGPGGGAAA

Structure (SMILES): O=C1N[C@H](Cc2ccccc2)C(=O)N[C@H](Cc2c[nH]c3ccccc23)C(=O)N[C@@H](Cc2ccccc2)C(=O)N2CCC[C@H]12 (single isomer, unassigned) [Stereoisomer 5, cyclo[Phe-D-Pro-D-Phe-D-Trp]]
- Ki (rat MOR): 5800 ± 1450 nM
- half-life at 5 µM [1]: 15 min
- time of peak antinociception (C57BL/6J mice [2]; after i.c.v. administration): 30 min
- duration of significant antinociception (C57BL/6J mice [2]; i.c.v. administration): 90 min
- ED50 (and 95% C.I.) i.c.v. (C57BL/6J mice [2]; i.c.v., C57BL/6J mice, antinociception at peak response): 0.56 (0.38–0.91) nmol
- antinociceptive efficacy (C57BL/6J mice [2]; p.o.): full antinociception
- time of peak antinociception (C57BL/6J mice [2]; p.o. administration): 20 to 30 min
- ED50 (and 95% C.I.) p.o. (C57BL/6J mice [2]; p.o., C57BL/6J mice, antinociception at peak response): 4.72 (3.70–6.39) mg/kg
- Receptors Involved (in antinociception) (C57BL/6J mice [3]): all three opioid receptors contributed to the antinociception; also recorded: KOR, MOR, DOR
- antagonism of SNC-80 antinociception (DOR antagonist activity) (DOR): significantly antagonized SNC-80
- Selectivity Ki (MOR) Ki (KOR) (rat KOR [4]): 16
- effect on coordinated locomotor performance (rotarod) vs vehicle (C57BL/6J mice [5]): lacked any significant effect
- effect on respiration rate vs vehicle (C57BL/6J mice [6]): significant decreases in respiration rates
- conditioned place preference or aversion (C57BL/6J mice [7]): no significant preference or aversion
- Ki (rat KOR [8]): 353 ± 19 nM
- Fold-Shift, Naïve ED50 vs. Second ED50 (C57BL/6J mice [9]): 1.09 fold
- ED50 (95% C.I.) Pretreated Mice (C57BL/6J mice [9]): 0.49 (0.09–1.36) nmol
- acute antinociceptive tolerance (C57BL/6J mice [9]): Neither stereoisomer 4 or 5 demonstrated any significant changes in the ED50 values
- Naïve ED50 (95% C.I.) (C57BL/6J mice [9]): 0.45 (0.28–0.70) nmol

Structure (SMILES): O=C1N[C@@H](Cc2ccccc2)C(=O)N2CCC[C@@H]2C(=O)N[C@@H](Cc2ccccc2)C(=O)N[C@H]1Cc1c[nH]c2ccccc12 [CJ-15,208, cyclo[Phe-D-Pro-Phe-Trp]]
- Ki (rat MOR): 451 ± 114 nM
- Selectivity Ki (MOR) Ki (KOR) (rat KOR [4]): 16.5
- affinity for DOR (mouse DOR): negligible affinity for DOR
- half-life in mouse liver microsomes [10]: 49 min
- ED50 (and 95% C.I.) i.c.v. (C57BL/6J mice [11]; i.c.v.): 1.74 (0.62–4.82) nmol
- ED50 (and 95% C.I.) p.o. (C57BL/6J mice [11]; p.o.): 3.49 (1.98–5.73) mg/kg
- Receptors Involved (in antinociception) (C57BL/6J mice [12]): KOR, MOR
- Ki (rat KOR [8]): 27.4 ± 4.6 nM
- Fold-Shift, Naïve ED50 vs. Second ED50 (C57BL/6J mice [9]): 2.87 fold
- ED50 (95% C.I.) Pretreated Mice (C57BL/6J mice [9]): 5.23 (4.23–6.48) nmol
- Naïve ED50 (95% C.I.) (C57BL/6J mice [9]): 1.82 (1.22–2.74) nmol

Structure (SMILES): CN1CC[C@]23c4c5ccc(O)c4O[C@H]2[C@@H](O)C=C[C@H]3[C@H]1C5 [Morphine, morphine, reference compound]
- conditioned place preference or aversion (C57BL/6J mice [13]): significant place-preference for the morphine-paired chamber
- effect on ambulation vs vehicle (C57BL/6J mice [14]): robust, significant increases in ambulation
- effect on respiration rate vs vehicle (C57BL/6J mice [14]): significant, time-dependent respiratory depression
- Fold-Shift, Naïve ED50 vs. Second ED50 (C57BL/6J mice [9]): 7.63 fold
- acute antinociceptive tolerance (C57BL/6J mice [9]): demonstrated acute antinociceptive tolerance
- Naïve ED50 (95% C.I.) (C57BL/6J mice [9]): 2.91 (2.48–3.41) nmol
